From patent US6696427B1, “Use of bisphosphonates for the prevention and treatment of infectious processes” (Jomaa Pharmaka GmbH, priority 1998, dated 2004)

Test system: γδ-T cells
Experiment: activatability of γδ-T cells in mononuclear cells isolated from blood of treated test subjects
Type: in vivo, human
Description: […] After the third infusion, a blood sample was taken from the subjects. The mononuclear cells were isolated from the blood. The activatability of the γδ-T cells was then tested. A full description is published in Jomaa et al. FEMS Immunol. Med. Microbiol. September 1999; 25(4); 371-8.
In contrast, cells from control subjects could be activated.

| Compound | γδ-T cell activation by antigens obtained from microorganisms (test subjects, 1 mg per treatment, protocol from Example 1) | γδ-T cell activation by antigens obtained from microorganisms (healthy test subjects, infusion of 90 mg at fortnightly intervals, blood sample after the third infusion, isolated mononuclear cells) |
| --- | --- | --- |
| CCCCCN(C)CCC(O)(P(=O)(O)O)P(=O)(O)O [ibandronic acid, 3-methylpentylamino-1-hydroxypropylidene-1,1-bisphosphonic acid] | no γδ-T cell activation | – |
| NCCC(O)(P(=O)(O)O)P(=O)(O)O [pamidronic acid, 3-amino-1-hydroxypropylidene-1,1-bisphosphonic acid] | – | no γδ-T cell activation |
